According to paper PMC3541233 (PLoS ONE, 2013):

Target: T1, AmPDH (pyranose dehydrogenase, PDH) (Macropsalliota meleagris, UniProt Q3L245)
T1 construct: gene pdh1; for crystals deglycosylated with alpha-mannosidase (577 residues)
Assay: anaerobic reduction of enzyme FAD, absorption spectra
Assay type: biochemical
Settings: 20 µM oxidized enzyme, 20 µM substrate, 100 mM NaH2PO4 pH 7.5, 25 °C; C2 accessible

T1 sequence (Q3L245 26-602): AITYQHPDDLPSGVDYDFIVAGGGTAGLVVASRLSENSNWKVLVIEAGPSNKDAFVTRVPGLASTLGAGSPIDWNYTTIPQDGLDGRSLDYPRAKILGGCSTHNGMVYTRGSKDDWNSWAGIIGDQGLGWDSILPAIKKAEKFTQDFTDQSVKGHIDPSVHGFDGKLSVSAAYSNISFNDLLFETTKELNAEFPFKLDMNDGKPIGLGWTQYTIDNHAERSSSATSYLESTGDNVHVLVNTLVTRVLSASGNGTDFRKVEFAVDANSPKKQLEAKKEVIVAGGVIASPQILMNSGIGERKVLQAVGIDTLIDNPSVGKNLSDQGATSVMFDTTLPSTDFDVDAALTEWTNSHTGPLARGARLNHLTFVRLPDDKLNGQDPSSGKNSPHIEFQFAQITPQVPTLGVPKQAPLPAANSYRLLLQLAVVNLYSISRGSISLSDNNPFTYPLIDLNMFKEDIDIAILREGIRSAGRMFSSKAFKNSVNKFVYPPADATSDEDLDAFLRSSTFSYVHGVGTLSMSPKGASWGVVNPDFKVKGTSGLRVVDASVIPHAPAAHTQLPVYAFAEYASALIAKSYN

Question: For OC[C@H]1OC(O)[C@H](O)[C@@H](F)[C@@H]1O (stereo partly shown), which “anaerobic reduction of enzyme FAD, absorption spectra” value is on record?
Answer: showing that AmPDH was rapidly reduced, presumably by a hydride moiety at glucose C2
